The nature of data set [1]: Permeability from apical to basolateral side in MDCK cells. The class given is ADME, cell-based, Canis lupus familiaris. Conditions: dog.
A short description of data set [2]: Permeability from basolateral to apical side in MDCK cells. The class given is ADME, cell-based, Canis lupus familiaris. Conditions: dog.
Data set [3] deals with L-lactate dehydrogenase A chain (Homo sapiens, UniProt P00338). In words: Inhibition of human LDH-A by biochemical assay.
Data set [4] in a line: Dissociation constant, pKa of the compound. The class given is physicochemical.
Data set [5] in a line: Unbound fraction in human plasma. The class given is ADME, cell-free.
Data set [6] is described as follows: Unbound fraction in rat plasma. It counts as ADME, cell-free.
The nature of data set [7]: Hepatic clearance in rat liver microsomes. The class given is ADME.
Data set [8] concerns MCF7. The data set can be described thus: Toxicity in human MCF7 cells assessed as effect on cell viability. The class given is cell-based.
Data set [9] relates to MCF7. The data set can be described thus: Inhibition of lactate production in human MCF7 cells in absence of serum. The class given is functional, cell-based.
Data set [10] is described as follows: Hepatic clearance in human liver microsomes. The class given is ADME. In general terms: Liver microsomes are a subcellular fraction often used to study metabolism.
The subject of data set [11] is MCF7. The data set can be described thus: Inhibition of lactate production in human MCF7 cells under standard serum conditions. The class given is functional, cell-based.
Data set [12] can be described thus: Kinetic solubility in pH 7.4 buffered aqueous solution. The class given is physicochemical. The note with it: read-out: Kinetic_solubility.

Structures are written as SMILES. Values after ≈ are worked out from the molar mass of the structure shown.

As usually defined, the Papp A→B is the apparent permeability from the apical to the basolateral side of a cell layer. A low value points to poor permeation. Usually Papp B→A stands for the apparent permeability from the basolateral to the apical side of a cell layer. What is called IC50 is the concentration needed to halve the response being measured. What is called pKa is the negative logarithm of the acid dissociation constant. `O=C1CC(c2ccccc2)CC(O)=C1Sc1ccccc1Cl` (stereo not drawn) had a Papp A→B in data set [1] of 12 ×10⁻⁶ cm/s. The same compound came in with a Papp B→A in data set [2] of 18 ×10⁻⁶ cm/s. Also, the half-inhibitory concentration (IC50) in data set [3] came out at 4 µM. The same compound displayed a pKa in [4] of 3.
In data set [3], `O=C1OC(C(=O)O)(c2ccccc2)CC(O)=C1Sc1ccccc1Cl` (stereo not drawn) showed an IC50 of 46 µM.
The term fraction unbound denotes free concentration divided by total concentration. A higher fraction unbound goes with weak binding. Compound `O=C1OC(c2ccccc2)CC(O)=C1Sc1ccccc1Cl` (stereo not drawn) came in with a Papp A→B in data set [1] of 3 ×10⁻⁶ cm/s. The fraction unbound in [5] and in data set [6] was 0.008 each time. Moreover, the Papp B→A in data set [2] was 5 ×10⁻⁶ cm/s. Moreover, in data set [3], half-maximal inhibition (IC50) was put at 4 µM. The compound also yielded a pKa in data set [4] of 2.4.
For `O=C1NC(c2ccccc2)CC(O)=C1Sc1ccccc1Cl` (stereo not drawn), in data set [1], the Papp A→B was found to be 7 ×10⁻⁶ cm/s. Also, the fraction unbound was 0.003 in data set [5] and 0.006 in data set [6]. This compound also yielded a Papp B→A in data set [2] of 9 ×10⁻⁶ cm/s. In data set [4], this compound came in with a pKa of 4.1.
`O=C1OC(c2ccccc2)CC(O)=C1Oc1ccccc1Cl` (stereo not drawn) had a Papp A→B in [1] of 4 ×10⁻⁶ cm/s. For the same compound, the fraction unbound in data set [5] amounted to 0.006; in [6] it was 0.013. Moreover, the Papp B→A in data set [2] stood at 6 ×10⁻⁶ cm/s. Further, in [3], the IC50 turned out to be 11 µM. The compound further gave a pKa in data set [4] of 3.4.
In data set [1], `O=C1CC(c2ccccc2)CC(O)=C1Oc1ccccc1Cl` (stereo not drawn) gave a Papp A→B of 11 ×10⁻⁶ cm/s. Further, the fraction unbound in [5] came to 0.011; in [6] it was 0.012. This compound came in with a Papp B→A in data set [2] of 16 ×10⁻⁶ cm/s. This compound showed an IC50 in [3] of 26 µM. This compound displayed a pKa in [4] of 3.7.
As for `O=C1NC(c2ccccc2)CC(O)=C1Oc1ccccc1Cl` (stereo not drawn), the Papp A→B in data set [1] worked out at 11 ×10⁻⁶ cm/s. Besides, the fraction unbound in data set [5] came out at 0.022; in [6] it was 0.023. The same compound showed a Papp B→A in data set [2] of 12 ×10⁻⁶ cm/s. In data set [3], this compound registered an IC50 of 11 µM. The compound also gave a pKa in [4] of 5.3.
In the case of `O=C1OC(c2ccccc2)CC(O)=C1Nc1ccccc1Cl` (stereo not drawn), the Papp A→B in data set [1] came out at 8 ×10⁻⁶ cm/s. In addition, the Papp B→A in data set [2] stood at 10 ×10⁻⁶ cm/s. For the same compound, half-maximal inhibition in data set [3] (IC50) required 13 µM. In data set [4], this compound yielded a pKa of 4.2.
On the same counts, the results for `O=C1CC(c2ccccc2)CC(O)=C1Nc1ccccc1Cl` (stereo not drawn) are 4 ×10⁻⁶ cm/s, 10 ×10⁻⁶ cm/s, 25 µM and 4.6.
On the same counts, the results for `O=C1NC(c2ccccc2)CC(O)=C1Nc1ccccc1Cl` (stereo not drawn) are 19 ×10⁻⁶ cm/s, 30 ×10⁻⁶ cm/s, 66 µM and 6.
The compound `O=C1OC(c2ccccc2Cl)CC(O)=C1Sc1ccccc1Cl` (stereo not drawn) had an IC50 in [3] of 5.5 µM.
On the same count and under the same terms, to `O=C1OC(c2cccc(Cl)c2)CC(O)=C1Sc1ccccc1Cl` (stereo not drawn) belongs 3.9 µM; to `O=C1OC(c2ccc(Cl)cc2)CC(O)=C1Sc1ccccc1Cl` (stereo not drawn), 16 µM; to `O=C1OC(c2c(Cl)cccc2Cl)CC(O)=C1Sc1ccccc1Cl` (stereo not drawn), 5 µM.
The same measure, in the same setting: to `Cc1cccc(C)c1C1CC(O)=C(Sc2ccccc2Cl)C(=O)O1` (stereo not drawn) belongs 17 µM; to `N#Cc1ccccc1C1CC(O)=C(Sc2ccccc2Cl)C(=O)O1` (stereo not drawn), above 100 µM.
Consider `N#Cc1cccc(C2CC(O)=C(Sc3ccccc3Cl)C(=O)O2)c1` (stereo not drawn), for which the 50% inhibitory concentration (IC50) in data set [3] was found to be 9.5 µM.
On the same count and under the same terms, the same measure for `CCOc1ccccc1C1CC(O)=C(Sc2ccccc2Cl)C(=O)O1` (stereo not drawn): 3.8 µM; for `CCOc1cccc(C2CC(O)=C(Sc3ccccc3Cl)C(=O)O2)c1` (stereo not drawn): 2.2 µM; for `CC(C)C1CC(O)=C(Sc2ccccc2Cl)C(=O)O1` (stereo not drawn): above 100 µM.
In data set [3], `O=C1OC(C2CCOCC2)CC(O)=C1Sc1ccccc1Cl` (stereo not drawn) returned an IC50 above 100 µM.
Still for that read-out and setting: to `Cn1ccc(C2CC(O)=C(Sc3ccccc3Cl)C(=O)O2)n1` (stereo not drawn) belongs 35 µM.
`O=C1OC(c2cncnc2)CC(O)=C1Sc1ccccc1Cl` (stereo not drawn) came in with an IC50 in data set [3] of 73 µM.
On the same count and under the same terms, to `O=C1OC(c2ccccn2)CC(O)=C1Sc1ccccc1Cl` (stereo not drawn) belongs 3.5 µM.
`O=C1OC(c2cccnc2)CC(O)=C1Sc1ccccc1Cl` (stereo not drawn): it took 15 µM to reach half-maximal inhibition in data set [3] (IC50).
In data set [3], `O=C1OC(c2ccncc2)CC(O)=C1Sc1ccccc1Cl` (stereo not drawn) registered an IC50 of 43 µM.
As to `CC1(c2ccccc2)CC(O)=C(Sc2ccccc2Cl)C(=O)O1` (stereo not drawn), the IC50 in data set [3] came to 4.1 µM.
Same read-out and setting: to `O=C1OC(c2ccccc2)(C2CC2)CC(O)=C1Sc1ccccc1Cl` (stereo not drawn) belongs 13 µM; to `O=C1OC(CO)(c2ccccc2)CC(O)=C1Sc1ccccc1Cl` (stereo not drawn), 5.6 µM; to `NC(=O)C1(c2ccccc2)CC(O)=C(Sc2ccccc2Cl)C(=O)O1` (stereo not drawn), 6.6 µM.
Same read-out and setting: to `CNC(=O)C1(c2ccccc2)CC(O)=C(Sc2ccccc2Cl)C(=O)O1` (stereo not drawn) belongs 7.4 µM; to `CN(C)C(=O)C1(c2ccccc2)CC(O)=C(Sc2ccccc2Cl)C(=O)O1` (stereo not drawn), 22 µM.
Compound `CNC(=O)CC1(c2ccccc2)CC(O)=C(Sc2ccccc2Cl)C(=O)O1` (stereo not drawn) showed an IC50 in data set [3] of 59 µM.
The same measure, in the same setting: the same measure for `O=C1OC2(CCc3c(Br)cccc32)CC(O)=C1Sc1ccccc1Cl` (single isomer, unassigned): 2.1 µM; for `O=C1OC2(CCOc3ccccc32)CC(O)=C1Sc1ccccc1Cl` (single isomer, unassigned; enantiomer A): 3.3 µM.
For `O=C1OC2(CCCc3ccccc32)CC(O)=C1Sc1ccccc1Cl` (single isomer, unassigned; enantiomer A), it took 2.1 µM to reach half-maximal inhibition in data set [3] (IC50).
Compound `O=C1OC2(CCc3ccccc32)CC(O)=C1Sc1ccccc1Cl` (single isomer, unassigned; enantiomer A) displayed an IC50 in data set [3] of 0.36 µM.
In data set [3], `O=C1OC2(CCc3c(Br)cccc32)CC(O)=C1Sc1ccccc1Cl` (single isomer, unassigned; enantiomer A) yielded an IC50 of 0.35 µM.
What is called EC50 is the midpoint of the concentration-response curve. Turning to `O=C1OC2(CCc3c(-c4ccccc4)cccc32)CC(O)=C1Sc1ccccc1Cl` (single isomer, unassigned; enantiomer A), the CLhep predicted in [7] was 41 mL/min/kg; in data set [10] it was 20 mL/min/kg. Also, the Activity result in the data set with MCF7 [8] was “Non-toxic”. For the same compound, the apparent permeability from apical to basolateral (Papp A→B) in data set [1] came out at 1.6 ×10⁻⁶ cm/s. Also, the figures for the EC50 in the data set on MCF7 [9] and with MCF7 [11] were 32 µM and above 50 µM, respectively. The fraction unbound in [5] and in data set [6] was below 0.01 each time. Besides, the solubility kinetic in data set [12] came out at 169 µM (≈ 73.5 µg/mL). This compound yielded an IC50 in data set [3] of 0.03 µM.
Compound `O=C1OC2(CCOc3ccccc32)CC(O)=C1Sc1ccccc1Cl` (single isomer, unassigned; enantiomer B) returned an IC50 in data set [3] of 28 µM.
Same read-out and setting: the same measure for `O=C1OC2(CCCc3ccccc32)CC(O)=C1Sc1ccccc1Cl` (single isomer, unassigned; enantiomer B): 22 µM; for `O=C1OC2(CCc3ccccc32)CC(O)=C1Sc1ccccc1Cl` (single isomer, unassigned; enantiomer B): 2.6 µM.
Still for that read-out and setting: to `O=C1OC2(CCc3c(-c4ccccc4)cccc32)CC(O)=C1Sc1ccccc1Cl` (single isomer, unassigned; enantiomer b) belongs 0.61 µM.

(Values after ChEMBL document CHEMBL3351509, “Identification of 3,6-disubstituted dihydropyrones as inhibitors of human lactate dehydrogenase” (Bioorg Med Chem Lett, 2014).)
